Values after ≈ are worked out from the molar mass of the structure shown.

The conditions of the data set: buffer; pH 7.4; 200.0 µM.
In general, solubility (kinetic) refers to the concentration staying in solution when a stock, usually in DMSO, is diluted into the medium. Turning to `CC(=O)c1ccc(OCC(=O)NC(=O)NC2CCCCC2)cc1`, the solubility (kinetic) is 9.3 µg/mL (≈ 29.2 µM). The same measure for `COCC(C)NC(C(=O)Nc1cccc(C(C)=O)c1)c1ccccc1` (centres undefined): above 51.1 µg/mL; for `Cc1nc2ccc(Br)cc2c(-c2ccccc2)c1C(=O)O`: above 51.3 µg/mL.

For the molecule `Cc1nccn1C[C@@H]1CCc2c(c3ccccc3n2C)C1=O`, the kinetic solubility is 32.5 µg/mL (≈ 111 µM). The same measure for `CN(C(=O)COC(=O)/C=C/c1ccccc1[N+](=O)[O-])c1ccccc1`: 47.5 µg/mL (≈ 140 µM); for `COc1ccccc1CN1CCN(S(=O)(=O)c2ccc(C)cc2)CC1`: 1 µg/mL (≈ 2.77 µM). The same measure for `Cc1ccc(NC(=O)CNC(=O)c2cccc(C)c2)nc1`: above 42.5 µg/mL; for `O=C1/C(=C\c2ccc(O)cc2)SC(=S)N1Cc1ccccc1`: below 0.7 µg/mL. The same measure for `O=C(NNC(=S)Nc1ccc(F)c(Cl)c1)C1CC1`: above 43.2 µg/mL; for `CN1C[C@@H]2C[C@@H](c3cccn3-c3ccccn3)N3CCC[C@@]23C1=O`: above 48.4 µg/mL; for `CCOc1ccccc1C(=O)OCC(=O)NCc1ccc2c(c1)OCO2`: above 53.6 µg/mL. On to `O=C(NC(=O)N1CCCCCC1)c1ccc(Cl)cc1`, for which the kinetic solubility was above 42.1 µg/mL. `O=C(COC(=O)/C=C/c1ccccc1Cl)Nc1cccnc1Cl`: the solubility (kinetic) was found to be 2.9 µg/mL (≈ 8.26 µM). The molecule `Cc1ccc(C(=O)Nc2ncc([N+](=O)[O-])s2)cc1` yielded a kinetic solubility of 27 µg/mL (≈ 103 µM). The same measure for `CC(NS(=O)(=O)c1ccc(Cl)c(Cl)c1)C(=O)Nc1cccnc1` (centres undefined): above 56.1 µg/mL; for `N#CCn1cnc2c(oc3ccccc32)c1=O`: above 33.8 µg/mL. In the case of `Cc1cccc(NC(=S)NCc2ccccc2Cl)c1C` it was below 0.3 µg/mL; in that of `O=C(COC(=O)c1ccc(O)cc1)Nc1ccc(S(=O)(=O)N2CCCC2)cc1`, above 60.7 µg/mL. The same measure for `Cc1cc(=O)n(Cc2ccccc2)c(O)c1C#N`: 32.2 µg/mL (≈ 134 µM); for `Cc1ccccc1C(=O)NC(=S)NC1CCS(=O)(=O)C1` (centres undefined): above 46.9 µg/mL. Turning to `CC1(C(=O)O)CCC(C(=O)Nc2ccc(Cl)c(Cl)c2)C1(C)C` (centres undefined), the kinetic solubility was above 51.6 µg/mL. Take `COc1ccc(CCN(C)c2ncnc3sccc23)cc1OC`: the kinetic solubility was above 49.4 µg/mL.

In turn, `Cc1cc(C)c(C#N)c(SCC(=O)Nc2nonc2N)n1` registered a kinetic solubility of 15.3 µg/mL (≈ 50.3 µM). In the case of `N#Cc1ccccc1NC(=S)NC(=O)c1cccnc1`, the kinetic solubility is 28.9 µg/mL (≈ 102 µM). The same measure for `Cc1ccc(S(=O)(=O)Nc2c(C)nn(C)c2C)c(C)c1`: above 44 µg/mL. In the case of `CC(Oc1ccccc1)C(=O)N1CCN=C1SCc1cccc(F)c1` (centres undefined) it was 11.1 µg/mL (≈ 31 µM). The molecule `O=C(CCc1c[nH]c2ccccc12)Nc1ncccc1O` returned a solubility (kinetic) above 42.2 µg/mL. For the molecule `COc1ccc(CCC(=O)NCc2cccc(C(F)(F)F)c2)cc1`, the kinetic solubility amounted to 10.3 µg/mL (≈ 30.5 µM). In the case of `COc1cccc(CNC(=O)CCCc2cn(C)c3ccccc23)c1` it was 6.1 µg/mL (≈ 18.1 µM); in that of `N/C(CS(=O)(=O)c1ccccn1)=N\OC(=O)c1ccccc1Cl`, 46.5 µg/mL (≈ 131 µM).

Regarding `CC(C)Cc1ccc(C(C)C(=N)N)cc1.Cl` (centres undefined), the solubility (kinetic) is above 36.1 µg/mL. The same measure for `Cc1cc(C)c2c(CC(=O)NCCc3ccccc3)coc2c1`: below 0.7 µg/mL. As to `C=CCn1cnnc1SCC(=O)Nc1cccnc1Cl`, the solubility (kinetic) was above 46.5 µg/mL.

In turn, `Cn1cc(C=O)c2ccccc21` displayed a kinetic solubility above 23.9 µg/mL.

`O=NN1CCN(c2ccncc2S(=O)(=O)N2CCCCC2)CC1` showed a kinetic solubility above 50.9 µg/mL. Molecule `O=C(CS(=O)(=O)c1ccccc1)Nc1nc2ccccc2s1` displayed a solubility (kinetic) above 49.9 µg/mL.

As for `CC(C)(C)NC(=S)Nc1cccc(C(F)(F)F)c1`, the kinetic solubility turned out to be 17.1 µg/mL (≈ 61.9 µM). The molecule `O=C(NC1CCC(c2ccccc2)CC1)c1cccnc1` (centres undefined) returned a solubility (kinetic) of 4.3 µg/mL (≈ 15.3 µM). As to `CCCCCCNc1c([N+](=O)[O-])c(=O)sc2ccccc12`, the kinetic solubility is 4.4 µg/mL (≈ 14.4 µM). This solubility kinetic and that of the molecule before are within 1.5-fold of each other. In the case of `CCOC(=O)c1ccc(Oc2cc(C)nc(Cl)n2)cc1` it was above 43.9 µg/mL; in that of `COc1ccc(NS(=O)(=O)c2ccc(Cl)c(NC(=O)c3ccccc3F)c2)cc1`, 2.6 µg/mL (≈ 5.98 µM). In the case of `CCc1nc(Nc2ccccc2OC)c2oc3ccccc3c2n1.Cl`, the kinetic solubility was below 0.3 µg/mL. In turn, `CC1CC1C(=O)Nc1nc(-c2ccc(Cl)s2)cs1` (centres undefined) came in with a kinetic solubility of 0.6 µg/mL (≈ 2.01 µM).

As to `O=C(/C=C/c1cccc([N+](=O)[O-])c1)OCC(=O)N1CCN(C(=O)c2ccco2)CC1`, the kinetic solubility is 30.9 µg/mL (≈ 74.7 µM). Consider `COc1ccc(C(=O)NCCCOc2cccc(NC(C)=O)c2)cc1`, for which the kinetic solubility is above 51.4 µg/mL. In turn, `COc1ccc(/C=C/C(=O)N2CCN(S(=O)(=O)c3ccccc3Br)CC2)cc1OC` yielded a kinetic solubility of 13.6 µg/mL (≈ 27.5 µM). In the case of `COc1cc(F)ccc1S(=O)(=O)n1c(C)nc2ccccc21` it was above 48.1 µg/mL; in that of `O=C(Nc1nccs1)c1ccc(Cl)nc1`, above 36 µg/mL.

Consider `COc1cc2ccccc2cc1C(=O)N1CCCC1`, for which the kinetic solubility is above 38.3 µg/mL.

As for `O=C(Nc1ccc2ccccc2n1)c1ccccc1`, the solubility (kinetic) was 29.8 µg/mL (≈ 120 µM).

For `CCOC(=O)c1c(C)nsc1NC(=O)C1CCCCC1`, the kinetic solubility turned out to be 8.3 µg/mL (≈ 28 µM). In the case of `Cn1c(=O)c(C(=O)NCCCc2ccccc2)c(O)c2ccccc21` it was below 0.4 µg/mL; in that of `O=C(COC(=O)c1cnccn1)Nc1ncc(C(F)(F)F)cc1Cl`, 53.4 µg/mL (≈ 148 µM). In the case of `Cc1ccc(S(=O)(=O)N2CCC3(CC2)OCCO3)cc1` it was above 44.6 µg/mL; in that of `Cc1ccccc1CN1CCN(C(=O)CC(C)C)CC1`, 27 µg/mL (≈ 98.4 µM).

Take `O=S(=O)(c1ccc(Br)c2ccccc12)N1CCOCC1`: the kinetic solubility was found to be 17.4 µg/mL (≈ 48.8 µM).

Regarding `O=C(Cc1ccc([N+](=O)[O-])cc1)NCC1CCCO1` (centres undefined), the kinetic solubility is above 39.6 µg/mL. `COc1ccccc1NC(=O)c1ccc(NC(=O)COC(=O)c2cccnc2Cl)cc1` showed a kinetic solubility of 7.4 µg/mL (≈ 16.8 µM).

As to `COc1cc2c(cc1NC(=O)CCC(=O)O)oc1ccccc12`, the kinetic solubility came out at 46.7 µg/mL (≈ 149 µM).

`CCOC(=O)c1sc(=NC(=O)C2CC2)n(C)c1C` showed a kinetic solubility above 40.2 µg/mL. `Cc1ccc(C)c(N(CC(=O)N2CCCCCC2)S(C)(=O)=O)c1` registered a kinetic solubility of 46.9 µg/mL (≈ 139 µM). Consider `CSc1nc(C)c(C(=O)C[n+]2ccccc2C)cc1C#N.[Br-]`, for which the solubility (kinetic) is above 56.7 µg/mL. As to `COc1ccc(NC(=O)c2ccc(N3CCCC3=O)cc2)cc1Cl`, the solubility (kinetic) worked out at 2.1 µg/mL (≈ 6.09 µM). As for `CC(C)(C)c1ccc(/C=C/C(=O)NCCCN2CCOCC2)cc1`, the solubility (kinetic) was found to be 32.3 µg/mL (≈ 97.7 µM). As for `Cc1nc2ccc(NC(=O)c3cc(Cl)ccn3)cc2s1`, the solubility (kinetic) is 4.9 µg/mL (≈ 16.1 µM). The molecule `CCOC(=O)c1sc(Nc2cccc(Cl)c2)nc1C` gave a kinetic solubility below 0.3 µg/mL. In the case of `O=C(CN1N=C(c2ccccc2)CCC1=O)NCc1cccs1` it was above 49.1 µg/mL; in that of `COC(=O)c1nn(-c2ccc(C)cc2)ccc1=O`, above 36.6 µg/mL. In turn, `O=C(NCCNC(=O)c1cccc(O)c1)c1cccc(O)c1` registered a kinetic solubility above 45 µg/mL. In turn, `COc1ccc(S(=O)(=O)NC2CCCCC2)cc1F` had a solubility (kinetic) above 43.1 µg/mL.

`CN(C)c1cccc2c(S(=O)(=O)N3CCCC3)cccc12` came in with a kinetic solubility of 34 µg/mL (≈ 112 µM). The same measure for `CCC1CCc2sc(C(=O)NCc3ccccn3)cc2C1` (centres undefined): 36.8 µg/mL (≈ 122 µM); for `COc1ccc2[nH]cc(CCNC(=O)c3ccc4ccccc4n3)c2c1`: 1.6 µg/mL (≈ 4.63 µM). The same measure for `CCOC(=O)N1CCN(C(=O)COC(=O)c2ccc(Cl)nc2)CC1`: above 53.4 µg/mL; for `CCCN(C(=O)CSc1ccccc1C(=O)O)C1CCS(=O)(=O)C1` (centres undefined): above 55.7 µg/mL; for `COc1ccc(C(=O)NCc2ccc3c(c2)cc(C)n3C)cc1OC`: 4.7 µg/mL (≈ 13.9 µM). In the case of `Cc1ccccc1N1C(=O)CSC1=C(C#N)C#N` it was above 38.3 µg/mL; in that of `COc1ccccc1OCCCC(=O)NCc1ccco1`, above 43.4 µg/mL; in that of `Cc1ccccc1N=C1c2ccccc2C(=O)C1[N+](=O)[O-]` (centres undefined), 31.7 µg/mL (≈ 113 µM).

Regarding `CSCC[C@H](NC(=O)c1cccc(S(=O)(=O)N2CCCCCC2)c1)c1nc2ccccc2[nH]1`, the kinetic solubility came out at 2.5 µg/mL (≈ 5.14 µM). `Cc1[nH]c2ccc(C(C)C)cc2c1CC(=O)O` gave a kinetic solubility above 34.7 µg/mL. Regarding `CC(=NCc1ccc2c(c1)OCO2)c1c(O)n(-c2ccccc2)c(=O)[nH]c1=O`, the kinetic solubility came out at 6.6 µg/mL (≈ 17.4 µM).

Turning to `O=C(/C=C/c1ccco1)NCC1OCCc2ccccc21` (centres undefined), the solubility (kinetic) came out at 41.5 µg/mL (≈ 146 µM). In the case of `CC(C)(C)NC(=S)NCC1CC1` it was above 27.9 µg/mL; in that of `Cc1ccc(-c2c(C(=O)O)c(C(=O)O)c3n2CSC3)cc1`, above 45.5 µg/mL; in that of `Cn1c(=O)c(-c2ccccc2[N+](=O)[O-])c(Cl)c2ccccc21`, 1.2 µg/mL (≈ 3.81 µM).

On to `O=C(NCc1ccc2c(c1)OCO2)c1cccnc1Cl`, for which the solubility (kinetic) amounted to 37.9 µg/mL (≈ 130 µM). This solubility kinetic is about 32-fold higher than that of the molecule before.

As for `COc1cc(C=O)ccc1OC(=O)c1cccnc1`, the solubility (kinetic) was determined as 33.7 µg/mL (≈ 131 µM). This solubility kinetic and that of the molecule before are within 1.5-fold of each other. In the case of `Cc1c(Cl)cccc1NC(=O)NCc1cccnc1`, the solubility (kinetic) was above 41.4 µg/mL.

`COc1cccc(N2C(=O)CC(N3CCc4ccccc4C3)C2=O)c1` (centres undefined) gave a solubility (kinetic) of 50.4 µg/mL (≈ 150 µM). In the case of `CCSCc1nc(N)nc(NCCc2ccccc2)n1` it was 34.7 µg/mL (≈ 120 µM); in that of `[Br-].c1ccc(-c2c[n+]3c(n2-c2ccccc2)SCC3)cc1`, above 53.9 µg/mL; in that of `O=C(Nc1ccc2c(c1)OCO2)c1noc2c1CCCC2`, 4.1 µg/mL (≈ 14.3 µM). `O=S(=O)(NCCOc1ccccc1F)c1ccc(Cl)cc1F` registered a kinetic solubility of 5.7 µg/mL (≈ 16.4 µM). The same measure for `Cc1ccc(NC(=O)CN(C)C(=O)Nc2ccc(C)cc2)cc1`: 4.9 µg/mL (≈ 15.7 µM); for `CC(C)N1C(=O)c2ccccc2N(Cc2ccccc2)S1(=O)=O`: 5.7 µg/mL (≈ 17.3 µM). The molecule `COc1ccccc1NC(=S)NC1CCCCCCCCCCC1` came in with a kinetic solubility below 0.4 µg/mL. In the case of `N/C(=N\S(=O)(=O)c1cccs1)c1ccccc1Cl` it was above 45.1 µg/mL; in that of `COc1ccc(-c2ccccc2)cc1NC(=O)c1cccs1`, 1.2 µg/mL (≈ 3.88 µM); in that of `Cc1ccccc1NC(=S)NC(=O)COc1ccccc1C`, 1.1 µg/mL (≈ 3.5 µM).

On to `COc1cccc(OCCNC(=O)c2ccc(C)cc2)c1`, for which the solubility (kinetic) amounted to 41.9 µg/mL (≈ 147 µM). This solubility kinetic is about 38-fold higher than that of the molecule before. Take `CC1=C(C(=O)NC(C)c2ccccc2)C2(CCC(C)CC2)OC1=O` (centres undefined): the kinetic solubility amounted to 8.4 µg/mL (≈ 25.7 µM). `OCc1nc2ccccc2n1CCOc1ccccc1` had a kinetic solubility above 40.2 µg/mL.

As to `O=[N+]([O-])c1ccc(Sc2ccc(F)cc2)nc1`, the kinetic solubility turned out to be 0.7 µg/mL (≈ 2.8 µM).

The record behind these values is PubChem BioAssay AID1996.
